Laboratory results taken from patent US12617773B2, “Azetidin-3-ylmethanol derivatives as CCR6 receptor modulators” (Idorsia Pharmaceuticals Ltd, priority 2020, dated 2026).

Target: T1, human CCR6 (Homo sapiens, UniProt P51684)
T1 construct: expressed in transfected cells; host or cells: HEK-293
T1 sequence (P51684 1-374): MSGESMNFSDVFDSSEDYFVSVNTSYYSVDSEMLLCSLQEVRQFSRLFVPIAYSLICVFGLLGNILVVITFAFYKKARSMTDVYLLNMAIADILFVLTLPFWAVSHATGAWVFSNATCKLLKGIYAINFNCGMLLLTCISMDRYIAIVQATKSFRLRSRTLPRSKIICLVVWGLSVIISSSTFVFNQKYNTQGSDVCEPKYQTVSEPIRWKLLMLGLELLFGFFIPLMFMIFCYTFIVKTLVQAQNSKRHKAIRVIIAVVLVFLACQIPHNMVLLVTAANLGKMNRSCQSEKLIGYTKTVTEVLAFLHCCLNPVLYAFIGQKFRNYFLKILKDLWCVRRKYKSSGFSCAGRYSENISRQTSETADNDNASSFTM
Assay: FLIPR assay (inhibition of CCL20-induced calcium signal)
Format: cell-based
Settings: HEK-293 cells expressing human CCR6; mean values where determined several times; read-out: FLIPR IC50
How it was run: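 Dye-loaded HEK-293 cells expressing human CCR6 were preincubated with compound for 30 min at room temperature in the dark, then challenged with 10 nM CCL20 (final). Fluorescence was tracked on FLIPR, and baseline-subtracted peak emission over base after agonist addition gave inhibition dose-response curves for IC50.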

| SMILES | IC50 [nM] |
| --- | --- |
| COc1cccc(C(C)(O)CCc2cc([C@@](O)(c3ccc(C(C)C)cc3)C3(C)CN(C)C3)cnn2)n1 (stereo partly drawn) [Example 419, 4-{5-[(R)-(1,3-Dimethyl-azetidin-3-yl)-hydroxy-(4-isopropyl-phenyl)-methyl]-pyridazin-3-yl}-2-(6-methoxy-pyridin-2-yl)-butan-2-ol] | 155 |
| Cc1cccc(C(C)(O)CCc2cc([C@@](O)(c3ccc(C(C)C)cc3)C3(C)CN(C)C3)cnn2)n1 (stereo partly drawn) [Example 420, 4-{5-[(R)-(1,3-Dimethyl-azetidin-3-yl)-hydroxy-(4-isopropyl-phenyl)-methyl]-pyridazin-3-yl}-2-(6-methyl-pyridin-2-yl)-butan-2-ol] | 277 |
| CC(C)c1ccc(C(O)(c2cccc(N3CCCC3)n2)C2(C)CN(C)C2)cc1 (stereo not drawn) [Example 421, (1,3-Dimethyl-azetidin-3-yl)-(4-isopropyl-phenyl)-(6-pyrrolidin-1-yl-pyridin-2-yl)-methanol] | 712 |
| CC(=O)N1CCC(F)(c2nc(-c3cncc([C@@](O)(c4ccc(C(C)C)cc4)C4(C)CN(C)C4)c3)no2)CC1 [Example 422] | 66.7 |
| CC(=O)N1CCC(C)(c2nc(-c3cncc([C@@](O)(c4ccc(C(C)C)cc4)C4(C)CN(C)C4)c3)no2)CC1 [Example 423] | 61.8 |
| CC(C)c1ccc([C@](O)(c2cncc(OC3CCC(=O)CC3)c2)C2(C)CN(C)C2)cc1 [Example 424, 4-{5-[(R)-(1,3-Dimethyl-azetidin-3-yl)-hydroxy-(4-isopropyl-phenyl)-methyl]-pyridin-3-yloxy}-cyclohexanone] | 107 |
| CC(C)c1ccc([C@](O)(c2cncc(C3CCC(O)CC3)c2)C2(C)CN(C)C2)cc1 (stereo partly drawn) [Example 425, 4-{5-[(R)-(1,3-Dimethyl-azetidin-3-yl)-hydroxy-(4-isopropyl-phenyl)-methyl]-pyridin-3-yl}-cyclohexanol] | 1730 |
| CC(C)c1ccc([C@](O)(c2cncc(COC3CCCC3)c2)C2(C)CN(C)C2)cc1 [Example 426, (R)-(5-Cyclopentyloxymethyl-pyridin-3-yl)-(1,3-dimethyl-azetidin-3-yl)-(4-isopropyl-phenyl)-methanol] | 17.7 |
| CC(=O)N1CCC(OCc2cncc([C@@](O)(c3ccc(C(C)C)cc3)C3(C)CN(C)C3)c2)CC1 [Example 427] | 292 |
| CC(C)c1ccc([C@](O)(c2cnnc(C3CCOCC3)c2)C2(C)CN(C)C2)cc1 [Example 428, (R)-(1,3-Dimethyl-azetidin-3-yl)-(4-isopropyl-phenyl)-[6-(tetrahydro-pyran-4-yl)-pyridazin-4-yl]-methanol] | 598 |
| CC(C)c1ccc([C@](O)(c2cnnc(CCC(C)(O)c3ccccc3)c2)C2(C)CN(C)C2)cc1 (stereo partly drawn) [Example 429, 4-{5-[(R)-(1,3-Dimethyl-azetidin-3-yl)-hydroxy-(4-isopropyl-phenyl)-methyl]-pyridazin-3-yl}-2-phenyl-butan-2-ol] | 103 |
| CC(C)c1ccc([C@](O)(c2cnnc(O[C@H]3CCOC3)c2)C2(C)CN(C)C2)cc1 [Example 430, (R)-(1,3-Dimethyl-azetidin-3-yl)-(4-isopropyl-phenyl)-{6-[(S)-(tetrahydro-furan-3-yl)oxy]-pyridazin-4-yl}-methanol] | 209 |
| CC(C)c1ccc([C@](O)(c2cnnc(O[C@@H]3CCOC3)c2)C2(C)CN(C)C2)cc1 [Example 431, (R)-(1,3-Dimethyl-azetidin-3-yl)-(4-isopropyl-phenyl)-{6-[(R)-(tetrahydro-furan-3-yl)oxy]-pyridazin-4-yl}-methanol] | 197 |
| CC1CC(=O)N(c2cc([C@@](O)(c3ccc(C(C)C)cc3)C3(C)CN(C)C3)cnn2)C1 (stereo partly drawn) [Example 432] | 146 |
| CC(C)c1ccc([C@](O)(c2cnnc(N3CCC(C(C)C)C3=O)c2)C2(C)CN(C)C2)cc1 (stereo partly drawn) [Example 433] | 58.5 |
| CC(C)c1ccc([C@](O)(c2cnnc(N3CCC(C)(C)C3=O)c2)C2(C)CN(C)C2)cc1 [Example 434] | 147 |
| CC(C)c1ccc([C@](O)(c2cnnc(N3CC(C)(C)CC3=O)c2)C2(C)CN(C)C2)cc1 [Example 435] | 175 |
| CC(C)c1ccc([C@](O)(c2cnnc(N3CC(C(F)(F)F)CC3=O)c2)C2(C)CN(C)C2)cc1 (stereo partly drawn) [Example 437] | 95.2 |
| CC(C)c1ccc([C@](O)(c2cnnc(N3CC(C4CC4)CC3=O)c2)C2(C)CN(C)C2)cc1 (stereo partly drawn) [Example 438] | 53.6 |
| CC(C)c1ccc([C@](O)(c2cnnc(N3CC4(CCOCC4)CC3=O)c2)C2(C)CN(C)C2)cc1 [Example 439] | 265 |
| CC(C)c1ccc([C@](O)(c2cnnc(N3CC4(CCCCC4)OC3=O)c2)C2(C)CN(C)C2)cc1 [Example 440] | 50.7 |

| SMILES | IC50 [nM] |
| --- | --- |
| CC(C)c1ccc([C@](O)(c2cnnc(N3CC(c4ccccn4)CC3=O)c2)C2(C)CN(C)C2)cc1 (stereo partly drawn) [Example 441] | 118 |
| COCCC1CCN(c2cc([C@@](O)(c3ccc(C(C)C)cc3)C3(C)CN(C)C3)cnn2)C1=O (stereo partly drawn) [Example 442] | 177 |
| CC(C)c1ccc([C@](O)(c2cnnc(N3CC(c4ccccc4)CC3=O)c2)C2(C)CN(C)C2)cc1 (stereo partly drawn) [Example 443] | 35.3 |
| CC(C)c1ccc([C@](O)(c2cnnc(N3Cc4ccccc4C3=O)c2)C2(C)CN(C)C2)cc1 [Example 444] | 33.4 |
| CC(C)c1ccc([C@](O)(c2cncc(-c3noc(C(C)(C)O)n3)c2)C2(F)CN(C)C2)cc1 [Example 445, 2-(3-{5-[(S)-(3-Fluoro-1-methyl-azetidin-3-yl)-hydroxy-(4-isopropyl-phenyl)-methyl]-pyridin-3-yl}-[1,2,4]oxadiazol-5-yl)-propan-2-ol] | 44.8 |
| CC(C)c1ccc([C@](O)(c2cncc(-c3noc(C(C)(C)O)n3)c2)C2(F)CN(C3CC3)C2)cc1 [Example 446, 2-(3-{5-[(S)-(1-Cyclopropyl-3-fluoro-azetidin-3-yl)-hydroxy-(4-isopropyl-phenyl)-methyl]-pyridin-3-yl}-[1,2,4]oxadiazol-5-yl)-propan-2-ol] | 48.4 |
| CC(=O)N1CCC(c2nc(-c3cncc([C@@](O)(c4ccc(C(C)C)cc4)C4(F)CN(C)C4)c3)no2)CC1 [Example 447, 1-[4-(3-{5-[(S)-(3-Fluoro-1-methyl-azetidin-3-yl)-hydroxy-(4-isopropyl-phenyl)-methyl]-pyridin-3-yl}-[1,2,4]oxadiazol-5-yl)-piperidin-1-yl]-ethanone] | 43.2 |
| CC(=O)N1CCC(c2nc(-c3cncc([C@@](O)(c4ccc(C(C)C)cc4)C4(F)CN(C5CC5)C4)c3)no2)CC1 [Example 448, 1-[4-(3-{5-[(S)-(1-Cyclopropyl-3-fluoro-azetidin-3-yl)-hydroxy-(4-isopropyl-phenyl)-methyl]-pyridin-3-yl}-[1,2,4]oxadiazol-5-yl)-piperidin-1-yl]-ethanone] | 35.2 |
| CC(C)c1ccc([C@](O)(c2cncc(-c3noc(C(C)(C)O)n3)c2)C2(C)CN(C3CC3)C2)cc1 [Example 449, 2-(3-{5-[(R)-(1-Cyclopropyl-3-methyl-azetidin-3-yl)-hydroxy-(4-isopropyl-phenyl)-methyl]-pyridin-3-yl}-[1,2,4]oxadiazol-5-yl)-propan-2-ol] | 40.8 |
| CC(=O)N1CCC(c2nc(-c3cncc([C@@](O)(c4ccc(C(C)C)cc4)C4(C)CN(C5CC5)C4)c3)no2)CC1 [Example 450] | 57.8 |
| CC(C)c1ccc([C@](O)(c2cncc(-c3noc(C4CCOCC4)n3)c2)C2(C)CN(C3CC3)C2)cc1 [Example 451] | 43.5 |
| CC(C)c1ccc([C@](O)(c2cncc(-c3noc([C@H]4CC[C@H](O)CC4)n3)c2)C2(C)CN(C3CC3)C2)cc1 [Example 452] | 33.6 |
| CC(C)c1ccc([C@](O)(c2cncc(-c3noc(C4COC4)n3)c2)C2(C)CN(C3CC3)C2)cc1 [Example 453] | 58.1 |
| CC(=O)N1CC[C@H](Cc2nc(-c3cncc([C@@](O)(c4ccc(C(C)C)cc4)C4(C)CN(C)C4)c3)no2)C1 [Example 454, 1-[(R)-3-(3-{5-[(R)-(1,3-Dimethyl-azetidin-3-yl)-hydroxy-(4-isopropyl-phenyl)-methyl]-pyridin-3-yl}-[1,2,4]oxadiazol-5-ylmethyl)-pyrrolidin-1-yl]-ethanone] | 103 |
| CC(=O)N1CCCC(c2nc(-c3cncc([C@@](O)(c4ccc(C(C)C)cc4)C4(C)CN(C)C4)c3)no2)C1 (stereo partly drawn) [Example 455] | 83.1 |
| CC(=O)N1CCCC(O)(c2nc(-c3cncc([C@@](O)(c4ccc(C(C)C)cc4)C4(C)CN(C)C4)c3)no2)C1 (stereo partly drawn) [Example 456] | 201 |
| CC(=O)N1CCCC(C)(c2nc(-c3cncc([C@@](O)(c4ccc(C(C)C)cc4)C4(C)CN(C)C4)c3)no2)C1 (stereo partly drawn) [Example 457] | 56.4 |
| CC(=O)N1CCCC(Cc2nc(-c3cncc([C@@](O)(c4ccc(C(C)C)cc4)C4(C)CN(C)C4)c3)no2)C1 (stereo partly drawn) [Example 458] | 99 |
| CC(=O)N1CCC(O)(Cc2nc(-c3cncc([C@@](O)(c4ccc(C(C)C)cc4)C4(C)CN(C)C4)c3)no2)CC1 [Example 459] | 440 |
| CC(=O)NC1(Cc2nc(-c3cncc([C@@](O)(c4ccc(C(C)C)cc4)C4(C)CN(C)C4)c3)no2)CC1 [Example 460, N-[1-(3-{5-[(R)-(1,3-Dimethyl-azetidin-3-yl)-hydroxy-(4-isopropyl-phenyl)-methyl]-pyridin-3-yl}-[1,2,4]oxadiazol-5-ylmethyl)-cyclopropyl]-acetamide] | 469 |
| CC(C)c1ccc([C@](O)(c2cncc(-c3noc(CC4(NC(=O)C5CCOCC5)CC4)n3)c2)C2(C)CN(C)C2)cc1 [Example 461] | 384 |
